Reference: patent publication US6207656A, “Vitamin D analogues and their neuronal effects” (Cephalon, Inc., priority 1998, dated 2001)

Tests used:
vitamin D receptor = target: T1, vitamin D receptor (Gallus gallus, UniProt O42392); test: Vitamin D receptor binding (displacement of 3H-1α,25(OH)2D3)
T1 sequence (O42392 1-451): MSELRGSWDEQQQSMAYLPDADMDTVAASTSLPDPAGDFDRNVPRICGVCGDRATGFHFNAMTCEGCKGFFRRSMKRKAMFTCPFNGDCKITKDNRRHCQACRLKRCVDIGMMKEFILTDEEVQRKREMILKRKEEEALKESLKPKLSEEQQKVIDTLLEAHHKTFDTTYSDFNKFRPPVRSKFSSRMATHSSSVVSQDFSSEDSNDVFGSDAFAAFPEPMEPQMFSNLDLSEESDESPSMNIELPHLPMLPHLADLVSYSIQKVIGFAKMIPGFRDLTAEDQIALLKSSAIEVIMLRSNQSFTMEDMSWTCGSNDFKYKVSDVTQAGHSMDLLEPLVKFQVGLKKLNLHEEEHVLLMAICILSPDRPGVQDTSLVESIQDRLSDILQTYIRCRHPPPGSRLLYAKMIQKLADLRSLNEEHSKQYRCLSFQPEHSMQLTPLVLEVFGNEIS
From the text: Bound and free ^3 H-1α,25(OH2)D3 were then separated on dextran-coated charcoal, samples were centrifuged and the supernatants containing the receptor-bound ^3 H-1α,25(OH2)D3 were counted in a liquid scintillation counter.

BDNF mRNA = test: Induction of BDNF mRNA expression in rats; assay type: in vivo, Sprague Dawley rats; conditions: 0.3, 1.0 and 3.0 μg/kg oral, 8 days; hippocampus (FIG. 1)
Procedure: Young adult male Sprague Dawley rats (250-350 g) were administered Compound (A), Compound (E), or a vehicle (80% propylene glycol (human formulation grade; Spectrum Quality Products, Inc., Gardena, Calif., catalog #PR130-55003) and 20% phosphate buffer, pH 9.2) at doses ranging from 0.1 to 5.5 μg/kg daily by oral gavage for eight days. Five hours after the last dose, the animals were sacrificed by decapitation. Each brain was quickly removed and chilled in ice-cold saline. The brain was cut into 2 mm thick coronal sections. Portions of the hippocampus, encompassing the CA1 region, and the medial septum were removed by punching 2 mm^3 sections using a calibrated tissue punch. Punched sections were immediately frozen on dry ice and then stored at -70° C. RNA was prepared from dissected tissue pieces.
Punches of tissue were homogenized in […] RNAzolB™ (Bioteex Laboratories, Houston, Tex.) using a homogenizer (Tekmar, Germany) until fully homogenized and then 250 μl RNAzilB™ was added. Typically, punches from the corresponding regions of brains of 2 to 3 animals were combined together. RNA was prepared as recommended by the manufacturer (Biotecx Laboratories). […] Concentration of RNA was measured spectrophotometrically and the quality of RNA was visualized on a nondenaturing agarose gel. […]

NGF mRNA = test: Induction of NGF mRNA expression in rats; assay type: in vivo, Sprague Dawley rats; conditions: 8 days (FIG. 1)
Procedure: Five hours after the last dose, the animals were sacrificed by decapitation. Each brain was quickly removed and chilled in ice-cold saline. The brain was cut into 2 mm thick coronal sections. Portions of the hippocampus, encompassing the CA1 region, and the medial septum were removed by punching 2 mm^3 sections using a calibrated tissue punch. Punched sections were immediately frozen on dry ice and then stored at -70° C. RNA was prepared from dissected tissue pieces.
Punches of tissue were homogenized in […] RNAzolB™ (Bioteex Laboratories, Houston, Tex.) using a homogenizer (Tekmar, Germany) until fully homogenized and then 250 μl RNAzilB™ was added. Typically, punches from the corresponding regions of brains of 2 to 3 animals were combined together. RNA was prepared as recommended by the manufacturer (Biotecx Laboratories). Following isopropanol precipitation, RNA was reprecipitated with ethanol and finally resuspended in 25-50 μL of water. Concentration of RNA was measured spectrophotometrically and the quality of RNA was visualized on a nondenaturing agarose gel. Equal amounts of RNA, usually 1-2 μg, were reverse transcribed using Superscript II™ (Gibco BRL), as recommended by the manufacturer. The assay was terminated by incubation at 95° C. 1 min. at 55-60° C. (depending on the primer set) and 2 min. at 72° C. […] After the assay, samples were electrophoresed on 5% nondenaturing acrylamide gels. Gels were dried and the resulting labeled bands were visualized on a phosphorimager (Storm 840, Molecular Dynamics, Sunnyvale, Calif.). The following primers were used: […]
Nerve Growth Factor (NGF). Primers were designed against the rat sequence.

C=C1/C(=C\C=C2/CCC[C@]3(C)[C@@H]([C@@H](C)[C@@H](C#CCC(O)(CC)CC)OCC)CC[C@@H]23)C[C@@H](O)C[C@@H]1O [Compound (A), 1(S),3(R)-dihydroxy-20(R)-(1-ethoxy-5-ethyl-5-hydroxy-2-heptyn-1-yl)-9,10-seco-pregna-5(Z),7(E),10(19)-triene] was tested, and the Kd (vitamin D receptor) was 200 pM, the “production of BDNF mRNA” value (BDNF mRNA) was “facilitated the production of NRT-like mRNA, GDNF mRNA, NT-3 mRNA, and BDNF mRNA” and the “production of NGF mRNA” value (NGF mRNA; 0.3 μg/kg oral) was “did not facilitate the production of NGF mRNA”. For the same compound, the “production of NGF mRNA” value (NGF mRNA; 1.0 and 3.0 μg/kg oral) was “facilitated the production of NGF mRNA”.
